Laboratory results as given in BindingDB's records for doi:10.7270/Q2KW5DFJ (Emory University, 2007).

Target: T1, Ubiquitin carboxyl-terminal hydrolase BAP1 (Homo sapiens, UniProt Q92560)
T1 sequence (Q92560 whole entry): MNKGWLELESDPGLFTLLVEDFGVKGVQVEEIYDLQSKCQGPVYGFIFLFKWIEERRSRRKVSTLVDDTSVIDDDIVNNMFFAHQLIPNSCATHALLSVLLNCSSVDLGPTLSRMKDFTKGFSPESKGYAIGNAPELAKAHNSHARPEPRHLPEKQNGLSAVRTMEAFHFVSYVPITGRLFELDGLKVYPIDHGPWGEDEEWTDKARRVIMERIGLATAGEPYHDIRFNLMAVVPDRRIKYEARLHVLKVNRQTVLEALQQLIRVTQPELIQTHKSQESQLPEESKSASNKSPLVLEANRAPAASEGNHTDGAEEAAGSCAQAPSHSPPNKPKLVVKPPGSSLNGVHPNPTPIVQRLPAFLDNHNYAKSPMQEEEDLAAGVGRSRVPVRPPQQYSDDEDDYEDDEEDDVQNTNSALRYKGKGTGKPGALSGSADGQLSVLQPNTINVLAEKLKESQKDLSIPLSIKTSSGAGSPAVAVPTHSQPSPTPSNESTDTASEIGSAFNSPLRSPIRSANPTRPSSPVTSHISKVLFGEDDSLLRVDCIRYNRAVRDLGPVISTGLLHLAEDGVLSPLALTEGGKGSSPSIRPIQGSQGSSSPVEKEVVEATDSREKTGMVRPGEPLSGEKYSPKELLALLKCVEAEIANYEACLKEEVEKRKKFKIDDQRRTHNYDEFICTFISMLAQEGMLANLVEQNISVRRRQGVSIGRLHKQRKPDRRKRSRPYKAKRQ
Experiment: BAP1 deubiquitinase inhibitors, dose response, biochemical (AID 714)

Compound	IC50
CCCOC(=O)C1=C(C)N=C2CCCC(=O)C2C1c1cccc(OC)c1OC (configuration not stated) [4-(2,3-dimethoxyphenyl)-2-methyl-5-oxo-4,6,7,8-tetrahydro-1H-quinoline-3-carboxylic acid propyl ester]	33.9 µM
CC(=O)C1=C(C)N=C(SCC(=O)c2ccc(Cl)c(Cl)c2)C(C#N)C1c1ccco1 (configuration not stated) [5-acetyl-2-[2-(3,4-dichlorophenyl)-2-oxoethyl]sulfanyl-4-(furan-2-yl)-6-methyl-1,4-dihydropyridine-3-carbonitrile]	> 50 µM
